Measured values reported in patent publication US6703412B1 (priority 2002, dated 2004).

Columns and labels:
sleeplessness [1] = experiment: Example 1: melatonin capsules for subjects having difficulty falling asleep at normal bedtime; assay type: in vivo, human; settings: 1.5 mg capsules after one hour of trying to fall asleep
sleeplessness [2] = experiment: Example 2: melatonin capsules for subjects who awake midway during normal sleep period; assay type: in vivo, human; settings: 1.5 mg capsules after 15 minutes of trying to fall back asleep
Excerpt: Subjects are those who awake at about midway during their normal sleep period and once awake have trouble falling back asleep.

[3] = 2-100 mg doses, man; cited from earlier work
mice = mice given 800 mg/kg; cited from earlier work

## COc1ccc2[nH]cc(CCNC(C)=O)c2c1 [Melatonin, N-acetyl-5-methyoxytryptamine]
Sleeplessness [1]
  sleep maintenance: sleep through the night
  state on awakening: alert, without any decrement in faculties
  time to fall asleep: ≤ 20 min
Sleeplessness [2]
  sleep maintenance: sleep through the remainder of the night
  state on awakening: refreshed, and not sleepy or drowsy
  time to fall asleep: ≤ 20 min
  time until awakening: 3 to 4 h
[3]
  biological half-life: 32-48 minutes
mice
  death: failed to produce death
